Reference: patent US7795263B2, “Pharmaceutical combination for and method of anesthetizing and immobilizing non-domesticated mammals” (Wildlife Laboratories, Inc., priority 2008, dated 2010)

Tested on: captive white-tailed deer (Odocoileus virginianus)
Experiment: BAM-1 / BAM-2 in captive white-tailed deer with NTA antagonist reversal (Example 4)
Format: in vivo
Conditions: adult male not recovered after BAM-2 and NTA-1
Protocol: BAM was administered to captive white-tailed deer (Odocoileus virginianus) at two dose levels (BAM-1 and BAM-2) in an approved-protocol study, to evaluate efficacy, quality of anesthesia, and quality of recovery following administration of tolazoline, atipamezole, and naltrexone antagonists.
The deer of the study were housed in large (0.4-0.8 ha) forested outdoor pens and were fed 17% protein ration with fresh hay and water available ad libitum. The average ambient temperature at time of immobilization and anesthesia was 14.4° C. Temperatures ranged from −1.7 to 25.6° C. […]
Immediately after BAM injection, each deer was released into a 15×20 m observation pen where the time to first noticeable drug effect (e.g., stumbling, gait changes) was recorded, the sternal time (when deer collapsed without rising again) was recorded, the lateral time (when deer lowered head and became immobile) was recorded, and the approachable time (when deer remained immobile and seemed oblivious to its surroundings) was recorded. […]
The heart rate (determined by auscultation), respiration rate (determined by thoracic movements), rectal temperature, and hemoglobin saturation level were recorded at 0, 10, and 20 minutes after recumbency. […] Heart rate readings from pulse oximetry were compared to heart rates as determined by auscultation. […]

c1ccc(CC2=NCCN2)cc1 [tolazoline]
effect of subsequent IM injection of 250 mg tolazoline: led to recovery from anesthesia, with minimal ataxia
